In patent US20050203119A1, “Dihydropyridine compounds for treating or preventing metabolic disorders” (priority 2003, published 2005):

Legend:
[1] = tested on: Male SD rats; details: rat, in vivo
Method: Male SD rats weighing 350-420 g were anesthetized with 2-3% isoflurane. The femoral artery and vein were catheterized and connected to a mean arterial blood pressure (MAP) and heart rate (HR) monitor and a continuous intravenous infusion pump. Under anesthesia, MAP and HR were recorded 10-20 minutes prior to and during the continuous intravenous infusion of test compounds for 60-70 minutes. The infusion rate, 0.14-0.16 ml/kg/minute, was determined on the basis of vehicle tolerance. The infusion doses, 1.0-1.25 mg/kg/minute, were selected, depending upon the solubility of the compound and effects on MAP and HR of the positive control compounds at the lethal dose. The maximal effective dose or lethal dose of test compounds were determined accordingly.

[2] = tested on: Male ZDF rats (ZDF/GmiCrl-fa/fa); assay: Seven day baseline glucose study in fed ZDF rats (Example 124, FIG. 9); format: in vivo, rat; details: oral once daily 7 days
Method: To determine the effect of a test compound on blood glucose levels in fed and fasted diabetic rats, a 7DBG study was conducted, followed immediately by an 8th day of dosing and an OGTT study on the same animals. Male ZDF rats (ZDF/GmiCrl-fa/fa), homozygous for a mutation in the gene encoding the leptin receptor, were purchased from Charles River Laboratories (Wilmington, Mass., USA). Animals were individually housed in clear polycarbonate cages (contact bedding) on a 12 hr/12 hr light/dark cycle, acclimated for at least one week prior to use and fed normal laboratory chow (Purina No. 5008) ad libitum. Studies were conducted with animals starting between eleven and twelve weeks of age. Animals were used for a single study before being replaced.
To perform a 7DBG plus OGTT study, animals were bled by tail vein lancing on day 0, 24 hrs prior to the first drug dose on day 1, and blood glucose levels were measured by a hand-held glucometer. Animals were randomized into dosing groups of 6 animals, with each group having a similar starting average glucose level. […] Blood glucose levels were determined daily using a hand-held glucometer 3 hrs after the first dose on days 1 through 7.
The serum glucose levels on days 3 or 7 as a percent of the serum glucose levels on day 0 for individual animals in each group (6 rats/group), were calculated using Formula 3. […]

[3] = tested on: Male ZDF rats (ZDF/GmiCrl-fa/fa); assay: Oral glucose tolerance test in fasted ZDF rats after 8 days of dosing (Example 124, FIG. 10); format: in vivo, rat; details: OGTT
Method: Male ZDF rats (ZDF/GmiCrl-fa/fa), homozygous for a mutation in the gene encoding the leptin receptor, were purchased from Charles River Laboratories (Wilmington, Mass., USA). Animals were individually housed in clear polycarbonate cages (contact bedding) on a 12 hr/12 hr light/dark cycle, acclimated for at least one week prior to use and fed normal laboratory chow (Purina No. 5008) ad libitum. Studies were conducted with animals starting between eleven and twelve weeks of age. Animals were used for a single study before being replaced. […] As noted above, animals were dosed on day 8 on the same schedule as was used for days 1 through 7 of the 7DBG study. […] Serum glucose levels were determined using a laboratory analyzer. […] This may be due to the dose of metformin (250 mg/kg) that was used, which may be too high to observe any synergy between the two compounds. […] The indicated time points are relative to the oral glucose dose.

[4] = tested on: male db/db mice (BKS.Cg-m+/+Lepr db/J); assay: Intraperitoneal glucose tolerance test (IPGTT) in db/db mice (Example 122, FIGS. 3 and 5); format: in vivo, mouse; details: IPGTT
[5] = tested on: male db/db mice (BKS.Cg-m+/+Lepr db/J); assay: Oral glucose tolerance test (OGTT) in db/db mice (Example 122, FIG. 4); format: in vivo, mouse; details: orally dosed
Method: To determine the effect of a test compound on blood glucose levels in diabetic mice, intraperitoneal and/or oral glucose tolerance tests (IPGTT and OGTT, respectively) were conducted. Six to eight week old, male db/db mice (BKS.Cg-m+/+Lepr^db/J; stock number 000642), homozygous for a mutation in the gene encoding the leptin receptor, were purchased from The Jackson Laboratory (Bar Harbor, Me. USA). Animals were singly housed in conventional caging on a 12 hr/12 hr light/dark cycle, acclimated for at least five days prior to use and fed normal laboratory chow ad libitum between experiments. Studies were conducted with animals between seven and fourteen weeks of age. […]
To perform an IPGTT or OGTT, db/db mice were fasted overnight beginning on day 0 at −17.5 to −18.5 hrs relative to the glucose dose on day 1 (all time points below are stated relative to the time of an intraperitoneal or oral glucose dose on day 1). At −4.5 hrs, animals were weighed, blood was collected by tail vein lancing and fasted blood glucose levels determined using a hand-held glucometer (MediSense Precision Xtra or LifeScan OneTouch Ultra). […] Blood glucose levels were determined as above at −45 min and +45 min, and also +90 min and/or +150 min (see FIG. 3 and the Table in this section). Alternatively, blood glucose levels were determined at −30 min, +30 min, +60 min and +120 min (see FIGS. 4 and 5). […]

Question: With `CCOC(=O)C1=C(COCCN)NC2=C(C(=O)CC(C)(C)C2)C1c1cccnc1` (centres unmarked) [Compound 39, 2-(2-Amino-ethoxymethyl)-7,7-dimethyl-5-oxo-4-pyridin-3-yl-1,4,5,6,7,8-hexahydro-quinoline-3-carboxylic acid ethyl ester] as the compound, how does the “Lethal Dose” value [1] read?
Answer: >70 mg/kg

Question: What about the “glucose lowering activities of metformin in combination with Compound 39 (FIG. 9)” value [2] of the same compound?
Answer: enhanced

Question: And the “serum glucose (FIG. 9)” value ([2]; Compound 39 alone)?
Answer: decreased serum glucose

Question: And the “glucose intolerance relative to vehicle-treated animals (FIG. 10)” value ([3]; after daily oral dosing for 8 days)?
Answer: decreased

Question: And the “effect of metformin on glucose tolerance in combination with Compound 39 (FIG. 10)” value ([3]; metformin 250 mg/kg)?
Answer: did not appear to enhance

Question: What about the “glucose intolerance relative to vehicle-treated animals (FIG. 5)” value ([4]; Compound 39 orally dosed alone) of the same compound?
Answer: decreased

Question: And the “effect of metformin on glucose intolerance in combination with Compound 39 (FIG. 5)” value ([4]; Compound 39 orally in combination with metformin)?
Answer: enhanced

Question: What about the “glucose intolerance relative to vehicle-treated animals (FIG. 4)” value [5] of the same compound?
Answer: decreased
